Measured values as given in patent publication US20140309296A1, “BUDIODARONE FORMULATIONS” (Armetheon, Inc., priority 2013, published 2014).
Read-outs that look alike come from different tables or passages of the source.

Experiments:
[1] = Pre-formed 3/1 benzyl alcohol/budiodarone composition, solubility in water (Example 7); assay type: physicochemical; details: 25 mg/ml budiodarone, 0.92% (v/v) benzyl alcohol, pre-mixed before water is added
Description: A clear solution containing 25 mg/ml of budiodarone and 0.92% (v/v) of benzyl alcohol (molar ratio of 3/1) was prepared. In this example, the association between budiodarone and benzyl alcohol was pre-formed before water is added.
Methanol (5 ml), budiodarone tartrate (250 mg, 0.293 mmole), and benzyl alcohol (92 μl, 0.880 mmole) were mixed. In this mixture, the molar ratio of benzyl alcohol to budiodarone was 3/1. Methanol was removed at 36° C. under partial vacuum (30 mm Hg) to form a clear oily residue. The residue was left at room temperature under high vacuum (1 mmHg) for 1 hour to remove traces of methanol. Water (10 ml), is then added, and the sample is vortexed for 3×10 sec.
In order to confirm the solubility of budiodarone and the molar ratio between benzyl alcohol and budiodarone, the sample was analyzed by HPLC. The analysis was performed immediately after preparation of the solution. An aliquot of the solution was centrifuged as described above in order to remove insoluble material.

[2] = system: sodium, potassium, and calcium ion channels; details: animals; cited from earlier work
[3] = Lower-limit ratio for soluble benzyl alcohol and budiodarone compositions in water (Example 6); assay type: physicochemical; details: 25, 50 and 100 mg/ml, introduced ratios 0.8 to 4.9, 24 hours in the dark, room temperature
Description: Three series of 20-ml screw-cap glass vials were prepared as described in Tables 5 to 7. Budiodarone tartrate was added to the empty vials, followed by water, and then benzyl alcohol was added. The vials were capped and the mixtures were vortexed for three times 10 seconds. The vials were then left in the dark for 24 hours and were then analyzed as described above using HPLC Conditions 2 and 3.
In FIG. 4, the approximately 5/1 lower-limit molar ratio is constant over a wide range of budiodarone concentrations, at least between budiodarone concentrations of 25 mg/ml and 100 mg/ml. The resulting ratios in solution, following 24-hour in the dark, were calculated from HPLC analysis data and were plotted versus the actual ratios introduced into the vials. Each point represents the mean findings of the three concentrations (25 mg/ml, 50 mg/ml, and 100 mg/ml)+/−standard deviation. […] This association takes place even when the original ratio introduced into the vial is as low as 0.8/1. Presumably the 5/1 ratio is an optimum molar ratio allowing for the optimum balance of repulsive ionic forces and attractive van der Waals forces between water molecules and the budiodarone/benzyl alcohol complex. […]

[4] = cited from earlier work; for tolerability: oral, up to 600 mg BID
[5] = cited from earlier work
[6] = Solubility of budiodarone tartrate in different co-solvents (Example 5); assay type: physicochemical; details: co-solvent 3.6% to 14.4% in water, 25 mg/ml, 24 hours
Description: Co-solvents that are routinely used in injectable pharmaceutical preparations were studied. These were dimethylacetamide (DMA), dimethylsulfoxide (DMSO), ethanol (EtOH), and N-methylpyrrolidone (NMP). Samples were prepared as described in Table 4 below.
Samples were prepared by mixing all three components together as in previous examples, using a vortexer at maximum speed for 3×10 sec. Samples were then left in the dark for 24 hours and analyzed by HPLC following centrifugation to precipitate any insoluble material.

[7] = Budiodarone concentration attainable in hyperconcentrated solutions (Examples 16-18); assay type: physicochemical
Description: The benzyl alcohol/budiodarone tartrate solution is viscous and therefore direct measurement of the budiodarone concentration is difficult. A better way to measure budiodarone concentration in the solution of benzyl alcohol and budiodarone oil or in a hyperconcentrated solution is by using an indirect method. In this example, the volume of the benzyl alcohol/budiodarone mixture was measured, which in turn allowed for the calculation of an accurate budiodarone concentration.
In each of five vials of accurately known volume, budiodarone tartrate (250 mg) and benzyl alcohol (91 μl) were mixed in order to make a 3/1 mixture (mol/mol). Then the solution was mixed thoroughly in order to make a clear solution. This was aided with the help of warming to 50° C. for 3 minutes in order to reduce the viscosity of the mixture. The weight of the vial containing the 3:1 mixture of benzyl alcohol/budiodarone was then recorded. Vial number 1 was filled with silicon oil of density d=0.964 and weighed again. The difference in weight provided the weight of the silicon oil added. This, divided by the density of the silicon oil provided the volume of silicon oil necessary to fill the vial. The difference with the known volume of the vial represents the volume of the benzyl alcohol/budiodarone mixture. To Vial numbers 2, 3, 4, and 5 was added 50, 100, 200, and 400 μl of water, respectively. The contents of the vials were then thoroughly mixed in order to get hyperconcentrated solutions of different volumes and different budiodarone concentrations. The volumes of these hyperconcentrations using silicon oil were measured as described above.
The same experiment as Example 16 was replicated, using mixtures of 5/1 ratio (250 mg of budiodarone tartrate and 152 μl of benzyl alcohol) and various volumes of water added. Using the same procedure as Example 16, a maximum calculated budiodarone concentration of 737 mg/ml and a maximum benzyl alcohol concentration of 45% (v/v) were found.
Similarly, the experiment in Example 16 was replicated, using a 1/1 mixture (250 mg of budiodarone tartrate and 30 μl of benzyl alcohol). A maximum calculated budiodarone concentration of 1,136 mg/ml and a maximum benzyl alcohol concentration of 13.6% (v/v) were found.

Q: Which results are given for `CC[C@H](C)OC(=O)Cc1oc2ccccc2c1C(=O)c1cc(I)c(OCCN(CC)CC)c(I)c1` [budiodarone, (1S)-1-methylpropyl 2-(3-{4-[2-(diethylamino)ethoxy]-3,5-diiodobenzoyl}benzofuran-2-yl)acetate]?
A: solubility in water of pre-formed 3/1 molar ratio [1]: water soluble; atrial effects [2]: increased St-A and A-H intervals; inhibition of sodium, potassium, and calcium ion channels [2]: inhibition comparable with amiodarone; left and right atrial refractoriness [2]: increased left and right atrial refractoriness comparable with amiodarone; ventricular effects [2]: increased MAPD90 and QT-interval; lower-limit molar ratio of benzyl alcohol to budiodarone in solution [3]: approximately 5/1; creatinine ([4]; BUN unchanged): reversible elevation; ALT ([4]; appeared to be dose related): mild, reversible increase; tolerability [4]: safe and well tolerated; tolerability ([4]; listed as ATI-2042): well tolerated; tissue accumulation ([4]; slit lamp examination at the end of the treatment period): no evidence of budiodarone tissue accumulation; corneal deposits ([4]; slit-lamp examinations): No patient treated with ATI-2042 developed corneal deposits; PR interval, reduction from baseline ([5]; 200 mg bid): 16.6+23.9%; PR interval, reduction from baseline ([5]; 400 mg bid): 11.4+22.6%; PR interval, reduction from baseline ([5]; 600 mg bid): 27.0+32.1%; PR interval, reduction from baseline ([5]; 800 mg bid): 35.1 ± 30.9%; proarrhythmia, clinical hypothyroidism, or hyperthyroidism ([5]; 200 to 800 mg bid): no cases; serious AEs ([5]; 200 to 800 mg bid): no serious AEs related to study drug; tolerability ([5]; 200 to 800 mg bid): generally well tolerated; changes in HR, QRS, QT, or QTc ([5]; between baseline and dosing or washout): no significant changes; thyroid-stimulating hormone ([5]; three patients, outside the normal range): dose-responsive increases; PR interval, reduction from baseline ([5]; washout): 30.7 ± 24.3%; amount of solubilized budiodarone in the presence of DMA, DMSO, EtOH, or NMP [6]: not significantly different from the amount solubilized in water alone; maximum calculated budiodarone concentration ([7]; 1/1 mixture): 1,136 mg/ml; calculated maximum budiodarone concentration ([7]; 3:1 molar ratio of benzyl alcohol/budiodarone): 890 mg/mL; maximum calculated budiodarone concentration ([7]; 5/1 ratio): 737 mg/mL
